Measurements as given in PubChem BioAssay AID330 (DTP/NCI, 2004).
Values joined by “and” are separate entries in the source; they are usually repeats but may differ in a detail not shown here. Equal values may be shown once. Toxic doses and inconclusive results are not listed.

Tested on: P388 leukemia ip, CD2F1 mice, survival T/C
Experiment: NCI In Vivo Anticancer Drug Screen. Data for tumor model P388 Leukemia (intraperitoneal) in CD2F1 (CDF1) mice
Conditions: endpoint: median survival time, higher = longer survival
Procedure, shortened: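 Mice carrying the transplanted tumor received test compound or vehicle. Survival was recorded in each group, and the value is the treated-group measurement divided by that of the vehicle-treated control group.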

[1] = dose: 12.5 mg/kg/injection, schedule: Q01DX005 (ip), vehicle: Klucel (hydroxypropylcellulose) (HPC)
[2] = dose: 25.0 mg/kg/injection, schedule: Q01DX005 (ip), vehicle: Klucel (hydroxypropylcellulose) (HPC)
[3] = dose: 50.0 mg/kg/injection, schedule: Q01DX005 (ip), vehicle: Klucel (hydroxypropylcellulose) (HPC)
[4] = dose: 60.0 mg/kg/injection, schedule: Q01DX005 (ip), vehicle: saline with Tween-80
[5] = dose: 120.0 mg/kg/injection, schedule: Q01DX005 (ip), vehicle: saline with Tween-80
[6] = dose: 240.0 mg/kg/injection, schedule: Q01DX005 (ip), vehicle: saline with Tween-80

## Nc1nc(C[P+](c2ccccc2)(c2ccccc2)c2ccccc2)c(CCCCc2ccccc2)c(=O)[nH]1
[1]
  T/C: 101 % of control
[2]
  T/C: 101 % of control
[3]
  T/C: 98 % of control and 99 % of control

## C1=C(c2ccccc2)N2CCCNC2(c2ccccc2)CS1 (configuration not stated)
dose: 100.0 mg/kg/injection, schedule: Q04DX002 (ip), vehicle: saline with Tween-80
  T/C: 90 % of control
dose: 200.0 mg/kg/injection, schedule: Q04DX002 (ip), vehicle: saline with Tween-80
  T/C: 90 % of control
dose: 400.0 mg/kg/injection, schedule: Q04DX002 (ip), vehicle: saline with Tween-80
  T/C: 88 % of control

## O=C1c2ccccc2C=c2c1nc1c(O)ccc3cccc2c31
dose: 6.25 mg/kg/injection, schedule: Q01DX005 (ip), vehicle: Klucel (hydroxypropylcellulose) (HPC)
  T/C: 101 % of control
[1]
  T/C: 100 % of control
[2]
  T/C: 111 % of control
[3]
  T/C: 97 % of control

## Oc1c(O)c(Br)c(Br)c(Br)c1Br
dose: 100.0 mg/kg/injection, schedule: Q01DX009 (ip), vehicle: saline
  T/C: 107 % of control and 95 % of control
dose: 200.0 mg/kg/injection, schedule: Q01DX009 (ip), vehicle: saline
  T/C: 111 % of control

## Cc1ccc2c(c1)C1(SC(C)C(=O)N1c1ccc(Cl)cc1)C(=O)N2CN1CCOCC1 (configuration not stated)
[4]
  T/C: 113 % of control
[5]
  T/C: 100 % of control
[6]
  T/C: 121 % of control

## CN(C)C1C(O)C2Oc3c(cc(O)c4c3C(=O)c3cc5c(c(O)c3C4=O)C(NCCO)CC(C)(O)C5)C(C)(O2)C1O (configuration not stated)
dose: 6.25 mg/kg/injection, schedule: Q01DX009 (ip), vehicle: other
  T/C: 104 % of control
dose: 12.5 mg/kg/injection, schedule: Q01DX009 (ip), vehicle: other
  T/C: 108 % of control
dose: 25.0 mg/kg/injection, schedule: Q01DX009 (ip), vehicle: other
  T/C: 123 % of control
dose: 50.0 mg/kg/injection, schedule: Q01DX009 (ip), vehicle: other
  T/C: 157 % of control
dose: 100.0 mg/kg/injection, schedule: Q01DX009 (ip), vehicle: other
  T/C: 157 % of control

## CNC(=O)CCCCC(=O)NC
dose: 50.0 mg/kg/injection, schedule: Q01DX009 (ip), vehicle: saline with Tween-80
  T/C: 96 % of control
dose: 100.0 mg/kg/injection, schedule: Q01DX009 (ip), vehicle: saline with Tween-80
  T/C: 104 % of control
dose: 200.0 mg/kg/injection, schedule: Q01DX009 (ip), vehicle: saline with Tween-80
  T/C: 114 % of control
dose: 400.0 mg/kg/injection, schedule: Q01DX009 (ip), vehicle: saline with Tween-80
  T/C: 96 % of control

## COC(=O)C(=CNC(N)=O)C(=O)OC
[4]
  T/C: 96 % of control
[5]
  T/C: 100 % of control
[6]
  T/C: 94 % of control

## CNC(=O)OCc1c(COC(=O)NC)c(-c2ccc(C(C)(C)C)cc2)n(C)c1C
dose: 6.25 mg/kg/injection, schedule: Q01DX009 (ip), vehicle: distilled water + Tween-80
  T/C: 150 % of control and 152 % of control
dose: 12.5 mg/kg/injection, schedule: Q01DX009 (ip), vehicle: distilled water + Tween-80
  T/C: 155 % of control
dose: 25.0 mg/kg/injection, schedule: Q01DX009 (ip), vehicle: distilled water + Tween-80
  T/C: 150 % of control and 158 % of control
dose: 50.0 mg/kg/injection, schedule: Q01DX009 (ip), vehicle: distilled water + Tween-80
  T/C: 97 % of control

## CCC1(C)CC(C#N)(C#N)C(=O)NC1=O (configuration not stated)
[4]
  T/C: 100 % of control
[5]
  T/C: 97 % of control
[6]
  T/C: 100 % of control

## COC(=O)C12Oc3ccc(-c4ccc5c(c4O)C(=O)C4=CCC(C)C(O)C4(C(=O)OC)O5)c(O)c3C(=O)C1=CCC(C)C2O (configuration not stated)
dose: 2.5 mg/kg/injection, schedule: Q01DX009 (ip), vehicle: saline with Tween-80
  T/C: 91 % of control
dose: 5.0 mg/kg/injection, schedule: Q01DX009 (ip), vehicle: saline with Tween-80
  T/C: 95 % of control
dose: 10.0 mg/kg/injection, schedule: Q01DX009 (ip), vehicle: saline with Tween-80
  T/C: 88 % of control

## O=C(Nc1cccc(Br)c1)Oc1ccc(Cl)c2cccnc12
dose: 7.5 mg/kg/injection, schedule: Q01DX005 (ip), vehicle: saline with Tween-80
  T/C: 107 % of control
dose: 15.0 mg/kg/injection, schedule: Q01DX005 (ip), vehicle: saline with Tween-80
  T/C: 103 % of control
dose: 30.0 mg/kg/injection, schedule: Q01DX005 (ip), vehicle: saline with Tween-80
  T/C: 103 % of control and 91 % of control
[4]
  T/C: 100 % of control and 111 % of control
[6]
  T/C: 88 % of control
